The test system of this assay is 519858-162-T-J1-PDC complex spheroid growth, % test/control. In words: Anticancer human tumor 519858-162-T-J1-PDC patient-derived colon adenocarcinoma cell line growth inhibition [Asc]. Particulars: for viability, T/C: stronger effect = lower value; for pIC50: curve of first compound. A digest of the protocol:
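Complex solid-tumor spheroids incorporating human endothelial and mesenchymal stem cells received single agents or combinations over half-log dilution ranges anchored to clinical Cmax.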

The values below come from PubChem BioAssay AID1963421 (Molecular Pharmacology Branch, DTP, NCI, 2024).

A word on the viability, T/C: it is the ratio of treated to control. What is called pIC50 is −log10 of the IC50, conventionally taken in molar units.

Each structure is given as a SMILES string. pIC50: −log10 of the molar value. Several values for one entry are separate records, joined by “and”; a condition that tells them apart may be missing. Equal values may be shown once.
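Further: seven day drug exposure begun three days after spheroid seeding.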
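Wherever viability, T/C is given: 100% = DMSO vehicle wells and lower values mean less viable spheroid.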

On to `COc1c(OCCCN2CCOCC2)ccc2c3n(c(=NC(=O)c4cnc(N)nc4)nc12)CCN3`, for which the viability, T/C was 88.7% and 89.2% and 87.3% (compound 0.00316 µM); 106% and 82.6% and 84% (compound 0.01 µM); 91.1% and 79.6% and 45.8% (compound 0.0316 µM); 62.9% and 81.2% and 48.9% (compound 0.1 µM); 50.7% and 65.9% and 55.2% (compound 0.316 µM); 29.3% and 51.5% and 45.5% (compound 1 µM).
`NC(=O)C(=Cn1cnc(-c2cc(C(F)(F)F)cc(C(F)(F)F)c2)n1)c1cncnc1` + CNC(C)C(=O)NC1CN(S(=O)(=O)c2cccc(S(=O)(=O)N3CCC4CCC(C(=O)NC(c5ccccc5)c5ccccc5)N4C(=O)C(NC(=O)C(C)NC)C3)c2)CCC2CCC(C(=O)NC(c3ccccc3)c3ccccc3)N2C1=O: the negative logarithm of the IC50 (pIC50) (second compound 0.00316 µM) was below 6.52; the pIC50 (second compound 0.01 µM) is below 6.52; the pIC50 (second compound 0.0316 µM) is below 6.52; the pIC50 (second compound 0.1 µM) is below 6.52; the pIC50 (second compound 0.316 µM) is below 6.52; the negative-log IC50 (pIC50) (second compound 1 µM) is below 6.52. Moreover, the viability, T/C (second compound 0.00316 µM, first compound 0.000949 µM) was 139%; the viability, T/C (second compound 0.00316 µM, first compound 0.003 µM) was 116%; the viability, T/C (second compound 0.00316 µM, first compound 0.00949 µM) is 102%; the viability, T/C (second compound 0.00316 µM, first compound 0.03 µM) is 83.8%; the viability, T/C (second compound 0.00316 µM, first compound 0.0949 µM) was 71.7%; the viability, T/C (second compound 0.00316 µM, first compound 0.3 µM) was 71.2%. Further, the viability, T/C was 91.2% (second compound 0.01 µM, first compound 0.000949 µM); 80% (second compound 0.01 µM, first compound 0.003 µM); 67.5% (second compound 0.01 µM, first compound 0.00949 µM); 70.7% (second compound 0.01 µM, first compound 0.03 µM); 67% (second compound 0.01 µM, first compound 0.0949 µM); 55.6% (second compound 0.01 µM, first compound 0.3 µM). Moreover, the viability, T/C was 87% (second compound 0.0316 µM, first compound 0.000949 µM); 85.7% (second compound 0.0316 µM, first compound 0.003 µM); 80.1% (second compound 0.0316 µM, first compound 0.00949 µM); 54.8% (second compound 0.0316 µM, first compound 0.03 µM); 65% (second compound 0.0316 µM, first compound 0.0949 µM); 63.5% (second compound 0.0316 µM, first compound 0.3 µM). Moreover, the viability, T/C was 99.2% (second compound 0.1 µM, first compound 0.000949 µM); 96.3% (second compound 0.1 µM, first compound 0.003 µM); 98.4% (second compound 0.1 µM, first compound 0.00949 µM); 67.8% (second compound 0.1 µM, first compound 0.03 µM); 50.1% (second compound 0.1 µM, first compound 0.0949 µM); 71.2% (second compound 0.1 µM, first compound 0.3 µM). Moreover, the viability, T/C reads like this: (second compound 0.316 µM, first compound 0.000949 µM) 86.3%; (second compound 0.316 µM, first compound 0.003 µM) 105%; (second compound 0.316 µM, first compound 0.00949 µM) 67.1%; (second compound 0.316 µM, first compound 0.03 µM) 65.7%; (second compound 0.316 µM, first compound 0.0949 µM) 69.5%; (second compound 0.316 µM, first compound 0.3 µM) 67.6%. For the same molecule, the viability, T/C runs as follows: (second compound 1 µM, first compound 0.000949 µM) 88.4%; (second compound 1 µM, first compound 0.003 µM) 71.4%; (second compound 1 µM, first compound 0.00949 µM) 76.5%; (second compound 1 µM, first compound 0.03 µM) 51.4%; (second compound 1 µM, first compound 0.0949 µM) 72.3%; (second compound 1 µM, first compound 0.3 µM) 109%.
